# Test results published in patent US20260193236A1 (Protego Biopharma, Inc., priority 2022, published 2026).
# Tested on: IRE1-XBP1s (XBP1-RLuc splicing reporter in HEK293 T-REx cells)
# Assay: IRE1-XBP1s activation assay (XBP1-RLuc splicing reporter, HEK293 T-REx cells, luminescence relative to thapsigargin)
# Type: cell-based
# Details: 18 h, compound 10 μM, HEK293 T-REx XBP1-RLuc reporter cells, relative to thapsigargin (Tg) 500 nM, read-out: Activity (IRE1-XBP1s activation, luminescence as % signal relative to thapsigargin, % Tg)
# Procedure: IRE1-XBP1s activation Assay: HEK293 T-REx cells stably expressing the XBP1-RLuc splicing reporter were treated with an IRE1-XBP1s activator provided herein (10 μM) in the presence or absence of the IRE1 active site inhibitor 4μ8C (32 μM) for 18 h. Luminescence was shown as the percentage signal relative to thapsigargin (Tg) (500 nM, 18 h).
row,SMILES,activation at 10 µM [%]
1,Cc1ccc(OCCC(=O)Nc2cnn(CC(=O)N(C)CCOc3ccc(F)c(F)c3)c2)c(F)c1 [Compound 70],< 30
2,Cc1ccc(OCCC(=O)Nc2cnn(CC(=O)N(C)CCOc3ccc(Cl)cc3)c2)c(F)c1 [Compound 71],< 30
3,Cc1ccc(OCCC(=O)Nc2cnn(CC(=O)N(C)CCOc3ccc(F)c(Cl)c3)c2)c(F)c1 [Compound 72],< 30
4,Cc1ccc(OCCC(=O)Nc2cnn(CC(=O)N(C)CCOc3ccc(C4CC4)cc3)c2)c(F)c1 [Compound 73],30 to 50
5,COc1cccc(OCCN(C)C(=O)Cn2cc(NC(=O)CCOc3ccc(C)cc3F)cn2)c1 [Compound 74],< 30
6,Cc1ccc(OCCC(=O)Nc2cnn(CC(=O)N(C)CCOc3ccc(F)cc3)c2)c(F)c1 [Compound 75],< 30
7,Cc1ccc(OCCC(=O)Nc2cnn(CC(=O)N(C)CCOc3ccc(C)c(Cl)c3)c2)c(F)c1 [Compound 76],< 30
8,COc1ccc(OCCN(C)C(=O)Cn2cc(NC(=O)CCOc3ccc(C)cc3F)cn2)cc1 [Compound 77],< 30
9,Cc1ccc(OCCC(=O)Nc2cnn(CC(=O)N(C)CCOc3ccc(F)c(OC(F)(F)F)c3)c2)c(F)c1 [Compound 78],< 30
10,Cc1ccc(OCCC(=O)Nc2cnn(CC(=O)N(C)CCOc3ccc(C)c(C(F)(F)F)c3)c2)c(F)c1 [Compound 79],< 30
11,Cc1ccc(OCCC(=O)Nc2cnn(CC(=O)N(C)CCOc3ncc(F)cc3F)c2)c(F)c1 [Compound 80],< 30
12,Cc1ccc(OC[C@H](C)N(C)C(=O)Cn2cc(NC(=O)CCOc3c(F)cccc3F)cn2)cc1 [Compound 81],> 50
13,Cc1ccc(OC[C@@H](C)N(C)C(=O)Cn2cc(NC(=O)CCOc3c(F)cccc3F)cn2)cc1 [Compound 82],> 50
14,Cc1ccc(OCCN(C)C(=O)Cn2cc(NC(=O)CNCc3cccnc3N)cn2)cc1 [Compound 83],< 30
15,Cc1ccc(OCCN(C)C(=O)Cn2cc(NC(=O)COCc3cccnc3N)cn2)cc1 [Compound 84],< 30
16,Cc1ccc(OCCC(=O)Nc2cnn(CC(=O)N(C)CCOc3cc(F)c(C)c(F)c3)c2)c(F)c1 [Compound 85],> 50
17,Cc1ccc(OCCC(=O)Nc2cnn(CC(=O)N(C)CCOc3ccc(C(F)F)cc3)c2)c(F)c1 [Compound 86],> 50
18,Cc1cc(F)ccc1OCCC(=O)Nc1cnn(CC(=O)N(C)CCOc2ccc(C(=O)O)cc2)c1 [Compound 88],< 30
19,Cc1ccc(OCCC(=O)Nc2cnn(CC(=O)N(C)CCOc3ccc(C4(F)CC4)cc3)c2)c(F)c1 [Compound 89],< 30
20,Cc1ccc(OCCC(=O)Nc2cnn(CC(=O)N(C)CCOc3ncn(C)n3)c2)c(F)c1 [Compound 90],< 30
21,[2H]C([2H])([2H])c1ccc(OCCN(C)C(=O)Cn2cc(NC(=O)CCOc3ccc(C)cc3F)cn2)cc1 [Compound 91],30 to 50
22,"Cc1ccc(OCCN(C)C(=O)Cn2cc(NC(=O)CCCc3ccccc3)cn2)cc1 [Compound 92, N-(1-(2-(methyl(2-(p-tolyloxy)ethyl)amino)-2-oxoethyl)-1H-pyrazol-4-yl)-4-phenylbutanamide]",< 30
23,Cc1ccc(OCCN(C)C(=O)Cn2cc(NC(=O)CCNc3ncc(C)cn3)cn2)cc1 [Compound 93],< 30

row,SMILES,activation at 10 µM [%]
1,CN(CCOc1ccc(C(F)(F)F)cn1)C(=O)Cn1cc(NC(=O)CCOc2ccc(Cl)cc2F)cn1 [Compound 94],30 to 50
2,CN(CCOc1ccc(C(F)(F)F)cn1)C(=O)Cn1cc(NC(=O)CCOc2ccnc(N)c2)cn1 [Compound 95],< 30
3,COc1ccc(OCCN(C)C(=O)Cn2cc(NC(=O)CCOc3ccnc(F)c3)cn2)cc1 [Compound 96],< 30
4,Cc1ccc(OCCN(C)C(=O)Cn2cc(NC(=O)CCOc3c(F)cncc3Br)cn2)cc1 [Compound 97],< 30
5,Cc1ccc(OCCN(C)C(=O)Cn2cc(NC(=O)CCOc3ccnc(Br)c3)cn2)cc1 [Compound 98],> 50
6,Cc1ccc(OCCN(C)C(=O)Cn2cc(NC(=O)CCOc3ccnc(N)n3)cn2)cc1 [Compound 99],> 50
7,Cc1ccc(OCCN(C)C(=O)Cn2cc(NC(=O)CCOc3cccc(Br)n3)cn2)cc1 [Compound 100],> 50
8,Cc1ccc(OCCN(C)C(=O)Cn2cc(NC(=O)CCOc3ccnc(NC(=O)OC(C)(C)C)c3)cn2)cc1 [Compound 101],> 50
9,Cc1ccc(OCCN(C)C(=O)Cn2cc(NC(=O)CCOc3cccc(NC(=O)OC(C)(C)C)n3)cn2)cc1 [Compound 102],> 50
10,Cc1ccc(OCCN(C)C(=O)Cn2cc(NC(=O)CCOc3cccc(N)n3)cn2)cc1 [Compound 103],> 50
11,Cc1ccc(OCCN(C)C(=O)Cn2cc(NC(=O)CCOc3ccnc(N)c3)cn2)cc1 [Compound 104],> 50
12,Cc1ccc(OCCN(C)C(=O)Cn2cc(NC(=O)CCOc3cccc(C)n3)cn2)cc1 [Compound 105],> 50
13,CNc1nccc(OCCC(=O)Nc2cnn(CC(=O)N(C)CCOc3ccc(C)cc3)c2)n1 [Compound 106],> 50
14,C=C(C)c1cccc(OCCC(=O)Nc2cnn(CC(=O)N(C)CCOc3ccc(C)cc3)c2)n1 [Compound 107],< 30
15,Cc1ccc(OCCN(C)C(=O)Cn2cc(NC(=O)CCOc3cccc(C(C)C)n3)cn2)cc1 [Compound 108],< 30
16,Cc1ccc(OCCN(C)C(=O)Cn2cc(NC(=O)CCOc3ncncc3N)cn2)cc1 [Compound 109],> 50
17,Cc1ccc(OCCN(C)C(=O)Cn2cc(NC(=O)CCOc3ccncc3[N+](=O)[O-])cn2)cc1 [Compound 111],< 30
18,Cc1ccc(OCCN(C)C(=O)Cn2cc(NC(=O)CCOc3ccncc3N)cn2)cc1 [Compound 112],30 to 50
19,Cc1ccc(OCCN(C)C(=O)Cn2cc(NC(=O)CCOc3ncccc3[N+](=O)[O-])cn2)cc1 [Compound 113],> 50
20,Cc1ccc(OCCN(C)C(=O)Cn2cc(NC(=O)CCOc3ncccc3N)cn2)cc1 [Compound 114],> 50
21,Cc1ccc(OCCN(C)C(=O)Cn2cc(NC(=O)/C=C/Oc3c(Cl)ccnc3C)cn2)cc1 [Compound 115],< 30
22,Cc1ccc(OCCN(C)C(=O)Cn2cc(NC(=O)CCOc3c(F)cc(C)cc3F)cn2)cc1 [Compound 116],> 50
23,Cc1ccc(OCCN(C)C(=O)Cn2cc(NC(=O)CCOc3cncnc3N)cn2)cc1 [Compound 117],< 30

row,SMILES,activation at 10 µM [%]
1,Cc1ccc(OCCN(C)C(=O)Cn2cc(NC(=O)CCNc3cncc(N)c3)cn2)cc1 [Compound 119],< 30
2,COc1cc(NCCC(=O)Nc2cnn(CC(=O)N(C)CCOc3ccc(C)cc3)c2)ccn1 [Compound 120],> 50
3,Cc1ccc(OCCN(C)C(=O)Cn2cc(NC(=O)CCNc3cnc(F)c(C)c3)cn2)cc1 [Compound 121],> 50
4,Cc1ccc(OCCN(C)C(=O)Cn2cc(NC(=O)CCNc3cncc(N)n3)cn2)cc1 [Compound 122],< 30
5,"Cc1ccc(OCCN(C)C(=O)Cn2cc(NC(=O)CCNc3cc(C)nc(C)c3)cn2)cc1 [Compound 123, 3-((2,6-dimethylpyridin-4-yl)amino)-N-(1-(2-(methyl(2-(p-tolyloxy)ethyl)amino)-2-oxoethyl)-1H-pyrazol-4-yl)propanamide]",30 to 50
6,COc1ccc(OCCN(C)C(=O)Cn2cc(NC(=O)CCNc3ccnc4ncnn34)cn2)cc1 [Compound 124],30 to 50
7,Cc1ccc(OCCN(C)C(=O)Cn2cc(NC(=O)CCNc3ncc(C#N)cn3)cn2)cc1 [Compound 125],< 30
8,Cc1ccc(OCCN(C)C(=O)Cn2cc(NC(=O)CCNc3ccc(C)cn3)cn2)cc1 [Compound 126],< 30
9,Cc1ccc(OCCN(C)C(=O)Cn2cc(NC(=O)CCNc3cnc(Cl)cn3)cn2)cc1 [Compound 127],> 50
10,Cc1ccc(OCCN(C)C(=O)Cn2cc(NC(=O)CCNc3ccnc(C(F)(F)F)c3)cn2)cc1 [Compound 128],< 30
11,Cc1ccc(OCCN(C)C(=O)Cn2cc(NC(=O)CCNc3ccc(Cl)cn3)cn2)cc1 [Compound 129],< 30
12,Cc1ccc(OCCN(C)C(=O)Cn2cc(NC(=O)CCNc3ncc(C(F)(F)F)cc3Cl)cn2)cc1 [Compound 130],< 30
13,Cc1ccc(OCCN(C)C(=O)Cn2cc(NC(=O)CCNc3ccnc(F)c3)cn2)cc1 [Compound 131],30 to 50
14,Cc1ccc(OCCN(C)C(=O)Cn2cc(NC(=O)CCNc3cccc(C#N)n3)cn2)cc1 [Compound 132],> 50
15,Cc1ccc(OCCN(C)C(=O)Cn2cc(NC(=O)CCNc3cc(C(F)(F)F)ccn3)cn2)cc1 [Compound 133],> 50
16,Cc1ccc(OCCN(C)C(=O)Cn2cc(NC(=O)CCNc3nc(Cl)ns3)cn2)cc1 [Compound 134],> 50
17,Cc1ccc(OCCN(C)C(=O)Cn2cc(NC(=O)CCNc3ccnc(Br)c3)cn2)cc1 [Compound 135],30 to 50
18,Cc1ccc(OCCN(C)C(=O)Cn2cc(NC(=O)CCNc3ccnc(F)n3)cn2)cc1 [Compound 136],30 to 50
19,Cc1ccc(OCCN(C)C(=O)Cn2cc(NC(=O)CCNc3cc(C#N)ccn3)cn2)cc1 [Compound 137],< 30
20,Cc1ccc(OCCN(C)C(=O)Cn2cc(NC(=O)CCNc3ncccn3)cn2)cc1 [Compound 138],> 50
21,Cc1ccc(OCCN(C)C(=O)Cn2cc(NC(=O)CCNc3nccc(F)n3)cn2)cc1 [Compound 139],< 30
22,Cc1ccc(OCCN(C)C(=O)Cn2cc(NC(=O)CCNc3ncc(Cl)cc3F)cn2)cc1 [Compound 140],> 50
23,Cc1ccc(OCCN(C)C(=O)Cn2cc(NC(=O)CCNc3ncccc3C#N)cn2)cc1 [Compound 141],< 30
